How the values were obtained:
[1] = test system: ovariectomized (OVX) rats; assay: Uterine wet weight in ovariectomized rat post-menopausal model; assay type: in vivo, Sprague Dawley rats; conditions: for Uterine weight (% increase vs. OVX): oral, daily for 4 days, OVX rats
Method: (§1) In the examples illustrating the methods, a post-menopausal model was used in which effects of different treatments upon circulating lipids were determined.
(§2) Seventy-five day old female Sprague Dawley rats (weight range of 200 to 225g) were obtained from Charles River Laboratories (Portage, Mich.). The animals were either bilaterally ovariectomized (OVX) or exposed to a Sham surgical procedure at Charles River Laboratories, and then shipped after one week. Upon arrival, they were housed in metal hanging cages in groups of 3 or 4 per cage and had ad libitum access to food (calcium content approximately 0.5%) and water for one week. Room temperature was maintained at 22.2°±1.7° C. with a minimum relative humidity of 40%. The photoperiod in the room was 12 hours light and 12 hours dark.
(§3) Dosing Regimen Tissue Collection. After a one week acclimation period (therefore, two weeks post-OVX) daily dosing with test compound was initiated. 17α-ethynyl estradiol or the test compound were given orally, unless otherwise stated, as a suspension in 1% carboxymethylcellulose or dissolved or suspended in 20% cyclodextrin. Animals were dosed daily for 4 days. Following the dosing regimen, animals were weighed and anesthetized with a ketamine: Xylazine (2:1, V:V) mixture and a blood sample was collected by cardiac puncture. The animals were then sacrificed by asphyxiation with CO2, the uterus was removed through a midline incision, and a wet uterine weight was determined.

[2] = test system: ovariectomized (OVX) rats; assay: Uterine eosinophil peroxidase (EPO) assay; assay type: in vivo, Sprague Dawley rats; parameters: unit not given here; conditions: oral, daily for 4 days
Text: as §2, §3
Uterine Eosinoihil Peroxidase (EPO) Assay. Uteri were kept at 4° C. until time of enzymatic analysis. The uteri were then homogenized in 50 volumes of 50 mM Tris buffer (pH -8.0) containing 0.005% Triton X-100. Upon addition of 0.01% hydrogen peroxide and 10 mM O-phenylenediamine (final concentrations) in Tris buffer, increase in absorbance was monitored for one minute at 450 nm. The presence of eosonophils in the uterus is an indication of estrogenic activity of a compound. The maximal velocity of a 15 second interval was determined over the initial, linear portion of the reaction curve.

[3] = test system: ovariectomized (OVX) rats; assay: Serum cholesterol in ovariectomized rat post-menopausal model; assay type: in vivo, Sprague Dawley rats; conditions: oral, daily for 4 days
Method: as §1, §2, §3
Cholesterol Analysis. Blood samples were allowed to clot at room temperature for 2 hours, and serum was obtained following centrifugation for 10 minutes at 3000 rpm. Serum cholesterol was determined using a Boehringer Mannheim Diagnostics high performance cholesterol assay. Briefly the cholesterol was oxidized to cholest-4-en-3-one and hydrogen peroxide. The hydrogen peroxide was then reacted with phenol and 4-aminophenazone in the presence of peroxidase to produce a p-quinone imine dye, which was read spectrophotometrically at 500 nm. Cholesterol concentration was then calculated against a standard curve. The entire assay was automated using a Biomek Automated Workstation.

[4] = test system: ovariectomized (OVX) rats; assay: Uterine eosinophil peroxidase (EPO) assay; assay type: in vivo, Sprague Dawley rats
[5] = dose 0.1 mg/kg, test compounds in CDX (cyclodextrin) susp. or soln.
[6] = dose 1 mg/kg, CDX susp. or soln.
[7] = dose 10 mg/kg, CDX susp. or soln.
[8] = dose 0.1 mg/kg, test compounds in CDX susp. or soln.

## O=C(O)/C=C/c1ccc(C(=O)c2c(-c3ccc(O)cc3)sc3cc(O)ccc23)cc1 [Example 3, (E)-6-hydroxy-3-[4-(2-carboxyvinyl)benzoyl]-2-(4-hydroxyphenyl)benzo[b]thiophene]
[1]; [5]
  Uterine weight (% increase vs. OVX): 23.9%
[1]; [6]
  Uterine weight (% increase vs. OVX): 19.7%
[1]; [7]
  Uterine weight (% increase vs. OVX): 97.3%
[2]; [8]
  Uterine EPO (V. max): 0.9
[2]; [6]
  Uterine EPO (V. max): 1.2
[2]; [7]
  Uterine EPO (V. max): 8.4
[3]; [8]
  Serum Cholesterol (% decrease vs. OVX): −15.1%
[3]; [6]
  Serum Cholesterol (% decrease vs. OVX): −26.6%
[3]; [7]
  Serum Cholesterol (% decrease vs. OVX): 57.7%

## COc1ccc(-c2sc3cc(OC)ccc3c2C(=O)c2ccc(/C=C/C(=O)O)cc2)cc1 [Example 2]
[1]; [5]
  Uterine weight (% increase vs. OVX): 25.0%
[1]; [6]
  Uterine weight (% increase vs. OVX): 23.3%
[1]; [7]
  Uterine weight (% increase vs. OVX): 119.9%
[2]; [8]
  Uterine EPO (V. max): 2.1
[2]; [6]
  Uterine EPO (V. max): 2.1
[2]; [7]
  Uterine EPO (V. max): 35.1
[3]; [8]
  Serum Cholesterol (% decrease vs. OVX): −16.6%
[3]; [6]
  Serum Cholesterol (% decrease vs. OVX): −37.3%
[3]; [7]
  Serum Cholesterol (% decrease vs. OVX): 73.2%
other
  melting point: 204 to 207 °C

## O=C(O)CCc1ccc(C(=O)c2c(-c3ccc(O)cc3)sc3cc(O)ccc23)cc1 [Example 4, 6-hydroxy-3-[4-(2-carboxyethyl)benzoyl]-2-(4-hydroxyphenyl)benzo[b]thiophene]
[1]; [5]
  Uterine weight (% increase vs. OVX): −45.9%
[1]; [6]
  Uterine weight (% increase vs. OVX): −37.0%
[1]; [7]
  Uterine weight (% increase vs. OVX): 29.3%
[2]; [8]
  Uterine EPO (V. max): 0.0
[2]; [6]
  Uterine EPO (V. max): 0.0
[2]; [7]
  Uterine EPO (V. max): 1.2
[3]; [8]
  Serum Cholesterol (% decrease vs. OVX): −46.2%
[3]; [6]
  Serum Cholesterol (% decrease vs. OVX): −28.8%
[3]; [7]
  Serum Cholesterol (% decrease vs. OVX): 16.5%
other
  melting point: 244 to 248 °C

## C#C[C@]1(O)CC[C@H]2[C@@H]3CCc4cc(O)ccc4[C@H]3CC[C@@]21C [EE2, 17α-ethynyl estradiol, reference compound]
[1]; [5]
  Uterine weight (% increase vs. OVX): 201.3%
[1]; orally administered at 0.1 mg/kg/day, vs. ovariectomized test animals
  Effect on uterus / uterine weight (in words): uterine weight was substantially greater than the uterine weight of ovariectomized test animals
[2]; [8]
  Uterine EPO (V. max): 130.5
[3]; [8]
  Serum Cholesterol (% decrease vs. OVX): 68.6%
[4]
  Eosinophil infiltration into the uterus (stromal layer), in words: substantial, expected increase in eosinophil infiltration

— US6440958B1, “Acrylic and propionic acid compounds, intermediates, processes, compositions, and methods” (Eli Lilly and Company, priority 1995, dated 2002)
